According to patent publication US10059694B2, “2-aminopyrimidine compound and pharmaceutical composition and use thereof” (Shanghai Institute of Materia Medica, Chinese Academy of …, priority 2014, dated 2018):

How the values were obtained:
[1] = molecular target: T1, IGF-1R (Homo sapiens, UniProt P08069); assay: kinase inhibitory activity test (ELISA), IGF-1R; format: biochemical; settings: ATP 5 μM, 1 hour at 37° C.
T1 construct: purchased Millipore
Procedure, shortened: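 Poly(Glu,Tyr)4:1-coated plates; kinase reacted 1 h at 37 °C with 5 μM ATP (final) in HEPES pH 7.4 buffer with Mg2+/Mn2+. Phosphotyrosine detected by PY99 and HRP anti-mouse IgG with OPD at 490 nm; IC50 from four-parameter fit.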

[2] = system: phosphorylation of EGFR^wt in A431 cells; assay: Western blot, EGFR phosphorylation in A431 cells; format: cell-based, human; settings: FIG. 2
Procedure: (§1) The tests were performed using conventional Western Blot (immunoblotting test), as follows. A certain number of A431 cells and NCI-H1975 cells in the logarithmic growth phase were inoculated on 6-well plate and adherent cultured overnight in the incubator. Replaced with serum-free medium and starved for 24 h, a certain concentration of compound was added and reacted for 2 h. 50 ng/mL of EGF stimulating factor was added and reacted for 10 min. The cells were lysed with lysate and samples were collected, and then the samples were taken for SDS-PAGE electrophoresis. After electrophoresis, the protein was transferred to a nitrocellulose membrane by a semi-dry transfer system. The nitrocellulose membrane was placed in a blocking solution (5% skimmed milk diluted with TBS containing 0.1% Tween 20) for 2 h at room temperature, and then incubated overnight at 4° C. in a primary antibody solution (diluted with TBS containing 0.1% Tween 20 by 1:500). It was washed for three times with TBS containing 0.1% Tween 20 for 15 min each time. The membrane was placed in a secondary antibody solution (horseradish peroxidase labeled goat anti-rabbit IgG, diluted with TBS containing 0.1% Tween 20 by 1:2000) and reacted for 1 h at room temperature. After washed for three times as above, the membrane was dyed with ECL plus reagent and photoed using image Quant LAS 4000 camera.

[3] = system: human lung cancer NCI-H1975 nude mice subcutaneous xenografts; assay: NCI-H1975 nude mice subcutaneous xenograft; format: in vivo
Procedure: The tumor tissue in the growth stage was taken and cut into small pieces of about 1.5 mm^3, which were inoculated subcutaneously in nude mice under aseptic conditions. When the tumor was grown to about 100 mm^3, nude mice were random allocated. […] The mice were gavage administered once a day for 11 days, and the solvent control group (injection water containing 1% Tween 80) was set. During the whole experiment, the diameter of the transplanted tumor was measured twice a week with a vernier caliper and the weights of the mice were weighed. The volume of tumor was calculated as follows: TV=½×a×b^2 (Where a,b respectively represent long and wide)

[4] = system: phosphorylation of EGFR^T790M/L858R, AKT and ERK in NCI-H1975 cells; assay: Western blot, EGFR phosphorylation and downstream signaling in NCI-H1975 cells; format: cell-based, human; settings: FIG. 1
Procedure: as §1

[5] = system: human epidermal carcinoma A431 cell line; assay: SRB proliferation assay, A431 cells; format: cell-based; settings: A-431, SRB, 72 h, read-out: IC50 A431
Procedure, shortened: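 A431 cells in log phase are allowed to adhere for 24 h, then exposed to compound for 72 h in triplicate alongside DMSO controls. Cells are fixed with cold 10% TCA, stained with SRB, dye is solubilised in 10 mM Tris pH 10.5, and OD is read at 515 nm.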

T1 sequence (P08069 31-1367): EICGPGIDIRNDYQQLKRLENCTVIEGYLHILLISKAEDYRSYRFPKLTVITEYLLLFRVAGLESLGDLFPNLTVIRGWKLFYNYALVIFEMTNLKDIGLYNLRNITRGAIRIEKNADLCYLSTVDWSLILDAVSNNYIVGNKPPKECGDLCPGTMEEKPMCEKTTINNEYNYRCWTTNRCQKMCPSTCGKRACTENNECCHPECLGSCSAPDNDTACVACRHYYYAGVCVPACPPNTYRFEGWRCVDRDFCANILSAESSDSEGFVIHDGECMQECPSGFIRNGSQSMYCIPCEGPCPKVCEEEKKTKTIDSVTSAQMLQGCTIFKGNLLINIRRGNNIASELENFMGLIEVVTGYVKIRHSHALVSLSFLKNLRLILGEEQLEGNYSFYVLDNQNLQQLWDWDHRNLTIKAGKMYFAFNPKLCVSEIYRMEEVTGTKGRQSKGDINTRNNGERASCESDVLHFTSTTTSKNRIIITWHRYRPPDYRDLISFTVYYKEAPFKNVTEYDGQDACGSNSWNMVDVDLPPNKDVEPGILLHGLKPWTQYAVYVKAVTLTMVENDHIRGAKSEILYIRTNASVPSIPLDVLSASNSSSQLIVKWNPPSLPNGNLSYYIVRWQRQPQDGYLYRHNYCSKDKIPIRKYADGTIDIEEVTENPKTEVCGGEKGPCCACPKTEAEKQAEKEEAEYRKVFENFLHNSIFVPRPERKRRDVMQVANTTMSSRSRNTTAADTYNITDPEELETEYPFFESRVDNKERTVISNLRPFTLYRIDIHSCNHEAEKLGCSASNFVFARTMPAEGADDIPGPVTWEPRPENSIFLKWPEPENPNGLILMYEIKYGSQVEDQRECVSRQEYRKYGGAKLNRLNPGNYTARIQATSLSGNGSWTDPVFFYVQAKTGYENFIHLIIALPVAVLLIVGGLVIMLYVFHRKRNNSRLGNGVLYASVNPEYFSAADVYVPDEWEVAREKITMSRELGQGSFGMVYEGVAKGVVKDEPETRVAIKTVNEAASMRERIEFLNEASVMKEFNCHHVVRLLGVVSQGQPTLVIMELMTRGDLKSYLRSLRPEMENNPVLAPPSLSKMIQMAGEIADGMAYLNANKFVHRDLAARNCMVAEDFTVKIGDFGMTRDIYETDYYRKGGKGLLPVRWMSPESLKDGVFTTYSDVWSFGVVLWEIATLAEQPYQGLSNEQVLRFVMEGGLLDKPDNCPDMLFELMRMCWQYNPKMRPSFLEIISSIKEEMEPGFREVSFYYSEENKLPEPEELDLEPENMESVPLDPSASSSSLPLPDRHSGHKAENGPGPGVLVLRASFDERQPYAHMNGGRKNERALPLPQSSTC

IC50 [1]: 31.9 nM
IC50 [5]: 134 nM
SMILES: C=CC(=O)Nc1cc(Nc2ncc(Cl)c(Nc3ccc4ccccc4c3)n2)c(OC)cc1N(C)CCN(C)C [CCB120067, N-((5-((5-chloro-4-((naphthalen-2-yl)amino))pyrimidin-2-yl)amino)-2-((N-methyl-N-dimethylaminoethyl)amino)-4-methoxyphenyl)acrylamide]
inhibitory activity on phosphorylation of EGFR^wt [2]: weaker
inhibition of tumor growth ([3]; 10 mg/kg gavage once a day for 11 days, FIG. 3): significantly inhibit
tumor regression ([3]; 10 mg/kg gavage, after 7 days of administration): completely subsided
inhibitory activity on tumor growth compared with positive control ([3]; CCB120067 10 mg/kg versus CO1686 100 mg/kg): stronger than anti-tumor effect of CO1686 at 100 mg/kg dose
inhibition of phosphorylation of EGFR^T790M/L858R and activation of AKT and ERK ([4]; 2 h compound, EGF 50 ng/mL 10 min): significantly inhibit
inhibitory activity on phosphorylated EGFR^T790M/L858R, Akt and Erk compared with CO1686 ([4]; CCB120067 at 1 nM): comparable or slightly better than that of CO1686 at 100 nM concentration
